In PubChem BioAssay AID1919014 (Molecular Pharmacology Branch, DTP, NCI, 2023):

Tested on: NCI-H1341 complex spheroids, percent test/control
Assay: Anticancer human tumor NCI-H1341 cell line growth inhibition [AhR];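 note: spheroids exposed to agents for seven days before readout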
Conditions: for IC50: curve of first compound; for viability, T/C: stronger effect = lower value
Outline: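 Spheroids combined tumor cells with HUVEC endothelial cells and human MSCs as stroma. AhR antagonists were paired with standard or investigational drugs, each dosed in half-log steps down from near clinical Cmax, or from 10 microM where Cmax was unknown.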

[1] = second compound 0.1 µM, first compound 0.0316 µM
[2] = second compound 0.1 µM, first compound 0.1 µM
[3] = second compound 0.1 µM, first compound 0.316 µM
[4] = second compound 0.1 µM, first compound 1 µM
[5] = second compound 0.1 µM, first compound 3.16 µM
[6] = second compound 0.1 µM, first compound 10 µM
[7] = second compound 0.316 µM, first compound 0.0316 µM
[8] = second compound 0.316 µM, first compound 0.1 µM
[9] = second compound 0.316 µM, first compound 0.316 µM
[10] = second compound 0.316 µM, first compound 1 µM
[11] = second compound 0.316 µM, first compound 3.16 µM
[12] = second compound 0.316 µM, first compound 10 µM
[13] = second compound 1 µM, first compound 0.0316 µM
[14] = second compound 1 µM, first compound 0.1 µM
[15] = second compound 1 µM, first compound 0.316 µM
[16] = second compound 1 µM, first compound 1 µM
[17] = second compound 1 µM, first compound 3.16 µM
[18] = second compound 1 µM, first compound 10 µM
[19] = second compound 3.16 µM, first compound 0.0316 µM
[20] = second compound 3.16 µM, first compound 0.1 µM
[21] = second compound 3.16 µM, first compound 0.316 µM
[22] = second compound 3.16 µM, first compound 1 µM
[23] = second compound 3.16 µM, first compound 3.16 µM
[24] = second compound 3.16 µM, first compound 10 µM
[25] = second compound 10 µM, first compound 0.0316 µM
[26] = second compound 10 µM, first compound 0.1 µM
[27] = second compound 10 µM, first compound 0.316 µM
[28] = second compound 10 µM, first compound 1 µM
[29] = second compound 10 µM, first compound 3.16 µM
[30] = second compound 10 µM, first compound 10 µM

Nc1ccccc1NC(=O)c1ccc(CNC(=O)OCc2cccnc2)cc1 + Cc1cncc(-c2nc(NCCc3c[nH]c4ccccc34)c3ncn(C(C)C)c3n2)c1
IC50 (second compound 0.1 µM): 403 nM
IC50 (second compound 0.316 µM): 382 nM
IC50 (second compound 1 µM): 369 nM
IC50 (second compound 3.16 µM): 127 nM
IC50 (second compound 10 µM): < 31.6 nM
viability, T/C [1]: 66.1%
viability, T/C [2]: 76.2%
viability, T/C [3]: 52.2%
viability, T/C [4]: 29.1%
viability, T/C [5]: 5.05%
viability, T/C [6]: 0.51%
viability, T/C [7]: 73.4%
viability, T/C [8]: 65.8%
viability, T/C [9]: 55.7%
viability, T/C [10]: 26.1%
viability, T/C [11]: 5.82%
viability, T/C [12]: 0.6%
viability, T/C [13]: 68.6%
viability, T/C [14]: 84.9%
viability, T/C [15]: 51.3%
viability, T/C [16]: 19.8%
viability, T/C [17]: 5.68%
viability, T/C [18]: 0.56%
viability, T/C [19]: 55.3%
viability, T/C [20]: 52.2%
viability, T/C [21]: 42.3%
viability, T/C [22]: 21.7%
viability, T/C [23]: 8.4%
viability, T/C [24]: 0.87%
viability, T/C [25]: 21.9%
viability, T/C [26]: 22.6%
viability, T/C [27]: 15.2%
viability, T/C [28]: 9.63%
viability, T/C [29]: 1.83%
viability, T/C [30]: 0.47%

O=C(C=Cc1cccc(S(=O)(=O)Nc2ccccc2)c1)NO + Cc1cncc(-c2nc(NCCc3c[nH]c4ccccc34)c3ncn(C(C)C)c3n2)c1
IC50 (second compound 0.1 µM): 278 nM
IC50 (second compound 0.316 µM): 366 nM
IC50 (second compound 1 µM): 179 nM
IC50 (second compound 3.16 µM): 150 nM
IC50 (second compound 10 µM): < 31.6 nM
viability, T/C [1]: 71.7%
viability, T/C [2]: 80.8%
viability, T/C [3]: 43.8%
viability, T/C [4]: 16%
viability, T/C [5]: 5.29%
viability, T/C [6]: 0.53%
viability, T/C [7]: 76.2%
viability, T/C [8]: 74.7%
viability, T/C [9]: 55.1%
viability, T/C [10]: 15.3%
viability, T/C [11]: 5.78%
viability, T/C [12]: 0.65%
viability, T/C [13]: 80.3%
viability, T/C [14]: 55.7%
viability, T/C [15]: 44.9%
viability, T/C [16]: 22.9%
viability, T/C [17]: 5.39%
viability, T/C [18]: 0.5%
viability, T/C [19]: 71.2%
viability, T/C [20]: 55.6%
viability, T/C [21]: 38.1%
viability, T/C [22]: 13.1%
viability, T/C [23]: 4.08%
viability, T/C [24]: 0.56%
viability, T/C [25]: 37%
viability, T/C [26]: 33.9%
viability, T/C [27]: 20.2%
viability, T/C [28]: 9.91%
viability, T/C [29]: 2.99%
viability, T/C [30]: 0.32%

O=C(c1cc(Cc2n[nH]c(=O)c3ccccc23)ccc1F)N1CCN(C(=O)C2CC2)CC1 + Cc1cncc(-c2nc(NCCc3c[nH]c4ccccc34)c3ncn(C(C)C)c3n2)c1
IC50 (second compound 0.1 µM): > 10000 nM
IC50 (second compound 0.316 µM): > 10000 nM
IC50 (second compound 1 µM): > 10000 nM
IC50 (second compound 3.16 µM): > 10000 nM
IC50 (second compound 10 µM): < 31.6 nM
viability, T/C [1]: 87.6%
viability, T/C [2]: 80.9%
viability, T/C [3]: 82.1%
viability, T/C [4]: 85.5%
viability, T/C [5]: 76.7%
viability, T/C [6]: 61.7%
viability, T/C [7]: 72.7%
viability, T/C [8]: 91.4%
viability, T/C [9]: 64.4%
viability, T/C [10]: 77.5%
viability, T/C [11]: 74.1%
viability, T/C [12]: 63%
viability, T/C [13]: 88.3%
viability, T/C [14]: 61.2%
viability, T/C [15]: 70.8%
viability, T/C [16]: 79.3%
viability, T/C [17]: 71%
viability, T/C [18]: 62.7%
viability, T/C [19]: 57.5%
viability, T/C [20]: 61.1%
viability, T/C [21]: 60.6%
viability, T/C [22]: 62%
viability, T/C [23]: 68.1%
viability, T/C [24]: 51.4%
viability, T/C [25]: 19.4%
viability, T/C [26]: 19.5%
viability, T/C [27]: 19.6%
viability, T/C [28]: 21.3%
viability, T/C [29]: 21.2%
viability, T/C [30]: 22.1%
